Here are results for two compounds from article PMC4445981, “The glutamate transport inhibitor DL-Threo-β-Benzyloxyaspartic acid (DL-TBOA) differentially affects SN38- and oxaliplatin-induced death of drug-resistant colorectal cancer cells” (BMC Cancer, 2015).

Format in all cases: cell-based, human
For data set [1], the system named is CTR1. As to the kind of experiment: CTR1 protein level by Western blotting. Particulars: 24 h. Here is the method: Fig. 3 Effect of acute DL-TBOA and chemotherapy treatment on CTR1 protein level. Parental and drug-resistant HCT116 (a) and LoVo (b) cell lines were exposed to SN38 (0.8 μM) or oxaliplatin (20 μM), alone or in combination with 350 μM DL-TBOA as indicated for 24 h. Equal amounts of protein per lane were separated by SDS-PAGE and the protein levels of CTR1 were determined by Western blotting. Top: Representative Western blots (tubulin serves as a loading control), bottom: Densitometric quantification data summarized from 3 independent experiments per condition. Quantitative data are means with S.E.M. error bars of 3 independent experiments. *) p < 0.05, **) p < 0.01, ***) p < 0.001 compared to the control group without drug or TBOA treatment. Two-way ANOVA with Tukey post-test
Cells were grown to a confluence of 60-80 % and treated with chemotherapy, siRNA- or plasmid transfection as indicated. Cells were washed once in PBS, lysed in lysis buffer (1 % SDS, 0.1 M Tris pH 7.5, and 1 mM Na3VO4), sonicated, and protein content determined (DC assay, BioRad). Lysates were mixed 2:1with NuPage LDS sample buffer (Invitrogen). SDS-PAGE was carried out in NOVEX chambers with NuPAGE 10 % Bis-Tris gels under reducing and denaturing conditions, using BenchMark protein ladder (Invitrogen), and 15 μg protein per lane. […] Bands were scanned and quantified using UN-SCAN-IT (Silk Scientific).
On the technique in general: Immunoblotting shows a protein as a band on a membrane.

For data set [2], the system named is parental LoVo cells. As to the kind of experiment: MTT viability assay, parental LoVo cells. Particulars: 350 μM DL-TBOA, 48 h. The protocol: (§1) Fig. 2 DL-TBOA augments SN38-induced death in SN38-resistant cells, but protects oxaliplatin-resistant cells from oxaliplatin-induced death. Parental and drug-resistant HCT116 and LoVo cell lines seeded in 96-well dishes were exposed to SN38 (0.1 or 0.8 μM) or oxaliplatin (0.8 or 20 μM), alone or in combination with 70 or 350 μM DL-TBOA as indicated, for 48 h. Viability was assessed by MTT assay. a-b Parental HCT116 cells, (c) SN38 resistant HCT116 cells, (d) Oxaliplatin-resistant HCT116 cells, (e-f) Parental LoVo cells, (g) SN38 resistant LoVo cells, (h) Oxaliplatin-resistant LoVo cells. Data are means with S.E.M. error bars of 3 independent experiments. *) p < 0.05, **) p < 0.01, ***) p < 0.001 compared to the control group without drug or TBOA treatment; #) p < 0.05 compared to controls without TBOA treatment. One-way ANOVA followed by Dunnett post-test
Cells were seeded at appropriate density (LoVo 10,000, and HCT116 5000 cells /100 μl) in growth medium in 96-well plates. Next day, cells were treated with inhibitors and/or chemotherapy in a total volume of 200 μl in growth medium and incubated for 48 h at 37 °C, 5 % CO2. […] Absorbance was measured in an ELISA plate reader (Thermo Scientific MultiScan FC) at 550 nm. Data were background subtracted and % viability relative to controls calculated.
(In general: Formazan colour is commonly taken as a measure of viable cells.)

The test system of data set [3] is [3H]-D-Asp uptake (glutamate transporter activity) in HCT116-SN38 cells. Nature of the data set: [3H]-D-Asp uptake assay, HCT116-SN38. Particulars: HCT116-SN38, 100 nM [3H]-D-Asp, 6 min, 37 °C. The protocol: We therefore next determined glutamate transporter activity (as uptake of the substrate [^3H]-D-Asp following a 6-min incubation in buffer supplemented with a tracer concentration of 100 nM [^3H]-D-Asp). […] To determine which transporter(s) was responsible for the [^3H]-D-Asp uptake, we assessed the effect of DL-TBOA, a nonselective inhibitor of EAATs, and UCPH-101, a specific SLC1A3 inhibitor [16, 28, 29]. […] Basal [^3H]-D-Asp uptake was decreased by about 60 % in SN38-resistant compared to parental HCT116 cells, whereas that in SN38-resistant LoVo cells was nearly tripled compared to parental LoVo cells.
The [^3H]-D-Asp uptake assay was performed essentially as in [30]. Briefly, cells were split into poly-D-lysine-coated white 96-well plates (PerkinElmer). A similar number of cells were seeded for HCT116 parental, HCT116-SN38 and HCT116-Oxa cell lines (7 × 10^4 cells/well) and LoVo parental, Lovo-SN38 and Lovo-Oxa cell lines (6 × 10^4 cells/well). 16–24 h later, culture medium was aspirated, and cells were washed once with 100 μl assay buffer (Hank’s Buffered Saline Solution supplemented with 20 mM HEPES, 1 mM CaCl2 and 1 mM MgCl2, pH 7.4). 50 μl assay buffer supplemented with 100 nM [^3H]-D-Asp and test compounds as indicated was added, and the plate was incubated at 37 °C for 6 min. Non-specific [^3H]-D-Asp uptake was determined in wells with 3 mM L-glutamate. The assay mixture was quickly removed, and wells were washed with 2 × 100 μl ice-cold assay buffer, followed by 150 μl Microscint™20 scintillation fluid (PerkinElmer). The plate was shaken for 1 h and counted in a Wallac 1450 MicroBeta Trilux scintillation counter (GMI, Ramsey, MN).

Data set [4] deals with parental and drug-resistant HCT116 and LoVo cell lines. As to the kind of experiment: MTT viability assay, HCT116 and LoVo cell lines. Here is the method:
as §1
Cells were seeded at appropriate density (LoVo 10,000, and HCT116 5000 cells /100 μl) in growth medium in 96-well plates. Next day, cells were treated with inhibitors and/or chemotherapy in a total volume of 200 μl in growth medium and incubated for 48 h at 37 °C, 5 % CO2. The medium was replaced with 100 μl of 0.5 mg/ml 3-(4,5-dimethylthiazol-2-yl)-2,5-diphenyltetrazolium bromide (MTT) in growth medium. The reaction was stopped 1.5-2.5 h later by addition of 100 μl 20 % SDS in 0.02 M HCl, and incubation overnight to allow complete lysis of cells and formazan crystals. Absorbance was measured in an ELISA plate reader (Thermo Scientific MultiScan FC) at 550 nm. Data were background subtracted and % viability relative to controls calculated.

For orientation: IC50 means the concentration that gives 50% inhibition.

As to `N[C@H](C(=O)O)[C@H](OCc1ccccc1)C(=O)O` (racemic) [TBOA, DL-Threo-β-Benzyloxyaspartic acid], the “effect on CTR1 protein level” value in data set [1] (350 μM DL-TBOA +/- SN38 (0.8 μM) or oxaliplatin (20 μM), HCT116 and LoVo lines) is on record as “without detectable effects”. The “effect on loss of viability induced by 0.8 μM oxaliplatin” value in data set [2] is given as “essentially abolished the loss of viability”. In data set [3], the “pIC50 ± S.E.M., [3H]-D-Asp uptake” value stood at 5.83 ± 0.08. Further, the IC50 in data set [3] (read-out: IC50, [3H]-D-Asp uptake) came out at 1500 nM. The “effect on SN38-induced loss of viability” value in data set [4] (SN38-resistant HCT116 and LoVo cells, concomitant DL-TBOA 70 or 350 μM, 48 h) is “concentration-dependently enhanced SN38-induced loss of viability”; in data set [4] (parental cell lines, DL-TBOA 70 or 350 μM concomitantly with SN38, 48 h), “slightly exacerbated the SN38-induced loss of viability”. The “effect on oxaliplatin-induced loss of viability” value in data set [4] (both parental cell lines, DL-TBOA 70 or 350 μM concomitantly with oxaliplatin, 48 h) is “counteracted the effect of oxaliplatin on viability”; in data set [4] (oxaliplatin-resistant HCT116 and LoVo cells, DL-TBOA 70 or 350 μM, 48 h), “reversed oxaliplatin-induced loss of viability”. Moreover, the “effect on viability of untreated cells” value in data set [4] (no chemotherapeutic, DL-TBOA 70 or 350 μM, 48 h, all cell lines (Fig. 2a-h)) is reported as “small decrease in viability”.

For the compound `O=C(O)C(=O)O.[NH-][C@@H]1CCCC[C@H]1[NH-].[Pt+2]` [oxaliplatin], the “effect on CTR1 protein expression” value in data set [1] (20 μM oxaliplatin, all cell lines except parental HCT116, HCT116-Oxa, LoVo-Oxa) is “tended to reduce CTR1 protein expression”. Also, the viable cells remaining result in data set [4] (parental HCT116 and LoVo, 48 h, 20 μM oxaliplatin (highest dose tested)) is reported as “about 20%”.
